In ChEMBL document CHEMBL5214992, “Potent Uncompetitive Inhibitors of Nicotinamide N-Methyltransferase (NNMT) as In Vivo Chemical Probes” (J Med Chem, 2022):
Values belong to the molecule of their own block, whether it stands above or below them.

Legend:
[1] = molecular target: T1, Nicotinamide N-methyltransferase (Homo sapiens, UniProt P40261)
T1 sequence (P40261 whole entry): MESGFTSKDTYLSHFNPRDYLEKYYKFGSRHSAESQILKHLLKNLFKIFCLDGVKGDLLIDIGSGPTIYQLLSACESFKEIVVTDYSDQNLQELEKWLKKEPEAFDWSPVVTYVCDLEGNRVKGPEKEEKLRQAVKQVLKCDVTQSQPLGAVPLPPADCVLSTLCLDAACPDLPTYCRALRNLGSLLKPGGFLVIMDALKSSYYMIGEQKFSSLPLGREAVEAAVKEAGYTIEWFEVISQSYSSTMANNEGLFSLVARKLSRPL
Description: Inhibition of human NNMT measured after 20 mins by luminescence based methyltransferase assay

[2] = molecular target: T1, Nicotinamide N-methyltransferase; experiment: Inhibition of human NNMT in human K562 cells measured after 24 hrs by quantitative mass spectrometry; type: cell-based
[3] = Microsomal stability in human liver microsomes assessed as compound remaining after 60 mins by LC-MS/MS analysis; type: ADME, Microsome; conditions: for remaining at 1 h: liver microsomes, read-out: Stability
[4] = Microsomal stability in mouse liver microsomes assessed as compound remaining after 60 mins by LC-MS/MS analysis; type: ADME, Microsome; conditions: for remaining at 1 h: liver microsomes, read-out: Stability; for Stability: microsomes, 1 h
[5] = Half life in C57BL6/N mouse at 50 mg/kg, po measured upto 24 hrs by LC-MS/MS analysis; type: ADME, organism-based; conditions: in vivo
[6] = Half life in C57BL6/N mouse at 10 mg/kg, po measured upto 24 hrs by LC-MS/MS analysis; type: ADME, organism-based; conditions: in vivo
[7] = Tmax in C57BL6/N mouse at 50 mg/kg, po measured upto 24 hrs by LC-MS/MS analysis; type: ADME, organism-based; conditions: in vivo
[8] = Cmax in C57BL6/N mouse at 50 mg/kg, po measured upto 24 hrs by LC-MS/MS analysis; type: ADME, organism-based; design: dose 50 mg/kg, time < 24 hrs, route po; conditions: in vivo
[9] = AUClast in C57BL6/N mouse at 50 mg/kg, po measured upto 24 hrs by LC-MS/MS analysis; type: ADME, organism-based; design: time < 24 hrs, dose 50 mg/kg, route po; conditions: in vivo; for AUC(0-t) at 24 h: C57BL6/N
[10] = Clearance in C57BL6/N mouse at 1 mg/kg, iv measured upto 24 hrs by LC-MS/MS analysis; type: ADME, organism-based; conditions: in vivo
[11] = Oral bioavailability in C57BL6/N mouse at 50 mg/kg measured upto 24 hrs by LC-MS/MS analysis; type: ADME, organism-based; conditions: in vivo; for bioavailability: C57BL6/N
[12] = molecular target: CYP450 (Homo sapiens, UniProt P04798+P05177+P05181+P08684+P10632+P10635+P11509+P11712+P13584+P20813+P20815+P20853+P24462+P24903+P33260+P33261+P51589+P78329+P98187+Q02928+Q08477+Q16678+Q16696+Q5TCH4+Q6VVX0+Q7Z449+Q8TAV3+Q96SQ9+Q9HB55); experiment: Inhibition of CYP450 (unknown origin); type: ADME, protein assay
[13] = Aqueous solubility of compound at pH 7.4; type: physicochemical; conditions: aqueous medium
[14] = Volume of distribution at steady state in C57BL6/N mouse; type: ADME; conditions: in vivo, read-out: Vdss
[15] = molecular target: hERG (Homo sapiens, UniProt Q12809); experiment: Inhibition of hERG; type: toxicity
Chain of hERG (Q12809 whole entry): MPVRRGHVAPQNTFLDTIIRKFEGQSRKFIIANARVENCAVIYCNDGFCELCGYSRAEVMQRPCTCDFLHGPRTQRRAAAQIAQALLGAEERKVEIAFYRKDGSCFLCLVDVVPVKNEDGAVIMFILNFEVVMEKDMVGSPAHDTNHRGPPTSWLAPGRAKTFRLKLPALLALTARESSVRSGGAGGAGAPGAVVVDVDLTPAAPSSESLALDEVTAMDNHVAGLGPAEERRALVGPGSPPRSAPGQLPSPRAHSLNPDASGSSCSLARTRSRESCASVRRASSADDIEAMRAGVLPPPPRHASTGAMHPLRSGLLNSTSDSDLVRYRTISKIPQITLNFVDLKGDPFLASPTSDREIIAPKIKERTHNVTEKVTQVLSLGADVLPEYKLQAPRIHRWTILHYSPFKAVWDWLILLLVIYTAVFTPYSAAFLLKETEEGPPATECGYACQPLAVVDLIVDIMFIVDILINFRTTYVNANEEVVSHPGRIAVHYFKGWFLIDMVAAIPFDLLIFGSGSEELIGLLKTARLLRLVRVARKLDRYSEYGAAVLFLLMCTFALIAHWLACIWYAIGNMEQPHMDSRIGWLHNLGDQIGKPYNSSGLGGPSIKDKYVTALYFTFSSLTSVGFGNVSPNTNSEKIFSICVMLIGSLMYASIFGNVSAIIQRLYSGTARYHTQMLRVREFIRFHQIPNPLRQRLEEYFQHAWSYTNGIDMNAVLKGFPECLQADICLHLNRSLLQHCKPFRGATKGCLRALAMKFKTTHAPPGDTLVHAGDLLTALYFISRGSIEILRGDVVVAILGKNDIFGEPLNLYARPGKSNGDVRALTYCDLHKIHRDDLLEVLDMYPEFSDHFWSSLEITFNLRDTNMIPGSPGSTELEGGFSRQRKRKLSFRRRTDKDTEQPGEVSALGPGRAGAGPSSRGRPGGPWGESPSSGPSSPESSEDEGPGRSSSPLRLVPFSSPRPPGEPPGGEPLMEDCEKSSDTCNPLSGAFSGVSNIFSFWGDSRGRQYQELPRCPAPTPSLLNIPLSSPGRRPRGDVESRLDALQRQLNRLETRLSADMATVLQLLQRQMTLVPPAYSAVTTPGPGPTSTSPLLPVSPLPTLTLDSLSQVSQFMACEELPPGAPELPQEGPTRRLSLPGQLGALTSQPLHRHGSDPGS

[16] = Plasma protein binding in human; type: ADME, cell-free; conditions: read-out: PPB
[17] = Plasma protein binding in mouse; type: ADME, cell-free; conditions: read-out: PPB
[18] = Toxicity in C57BL6/N mouse assessed as adverse effect at 50 to 100 mg/kg, po qd measured after 2 weeks; type: organism-based; conditions: in vivo, 336 h, dose 50-100 mg/kg
[19] = molecular target: P-gp (Homo sapiens, UniProt P08183); experiment: Substrate activity at P-gp (unknown origin) assessed as efflux ratio; conditions: not told
Chain of P-gp (P08183 whole entry): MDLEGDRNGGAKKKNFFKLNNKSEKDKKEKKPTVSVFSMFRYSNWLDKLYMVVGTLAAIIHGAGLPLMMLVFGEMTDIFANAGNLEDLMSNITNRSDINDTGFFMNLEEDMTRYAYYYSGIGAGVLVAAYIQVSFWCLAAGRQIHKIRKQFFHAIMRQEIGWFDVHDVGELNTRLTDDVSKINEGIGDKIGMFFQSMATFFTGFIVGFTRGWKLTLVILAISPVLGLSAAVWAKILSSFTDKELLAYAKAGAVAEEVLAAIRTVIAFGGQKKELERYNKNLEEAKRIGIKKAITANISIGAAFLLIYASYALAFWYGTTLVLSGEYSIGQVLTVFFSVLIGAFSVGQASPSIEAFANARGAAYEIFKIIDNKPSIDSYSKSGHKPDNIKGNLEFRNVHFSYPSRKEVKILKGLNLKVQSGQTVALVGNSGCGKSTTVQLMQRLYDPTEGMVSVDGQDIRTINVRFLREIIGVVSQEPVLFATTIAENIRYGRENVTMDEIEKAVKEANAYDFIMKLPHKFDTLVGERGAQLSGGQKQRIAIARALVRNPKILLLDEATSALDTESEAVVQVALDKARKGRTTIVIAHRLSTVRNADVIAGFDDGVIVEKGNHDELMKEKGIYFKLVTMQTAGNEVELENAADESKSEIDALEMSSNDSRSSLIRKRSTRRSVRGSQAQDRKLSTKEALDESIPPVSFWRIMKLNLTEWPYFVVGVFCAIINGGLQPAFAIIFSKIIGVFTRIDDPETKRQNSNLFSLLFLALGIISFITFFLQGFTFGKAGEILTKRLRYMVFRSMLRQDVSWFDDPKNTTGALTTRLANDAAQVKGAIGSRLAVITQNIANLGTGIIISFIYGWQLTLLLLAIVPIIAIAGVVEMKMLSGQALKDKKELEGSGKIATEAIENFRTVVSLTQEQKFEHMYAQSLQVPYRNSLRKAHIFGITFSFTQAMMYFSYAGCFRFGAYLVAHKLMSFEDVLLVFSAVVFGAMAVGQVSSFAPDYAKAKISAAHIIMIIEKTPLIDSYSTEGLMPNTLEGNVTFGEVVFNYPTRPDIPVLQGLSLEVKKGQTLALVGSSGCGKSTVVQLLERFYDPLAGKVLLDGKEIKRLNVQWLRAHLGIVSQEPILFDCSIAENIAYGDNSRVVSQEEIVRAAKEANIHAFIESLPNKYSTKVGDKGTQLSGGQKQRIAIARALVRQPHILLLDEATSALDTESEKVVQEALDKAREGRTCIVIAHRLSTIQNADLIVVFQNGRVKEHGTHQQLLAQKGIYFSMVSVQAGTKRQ

[20] = Mutagenicity in Salmonella typhimurium by Ames test; type: toxicity; conditions: salmonella enterica subsp. enterica serovar typhimurium
[21] = Dissociation constant, pKa of the compound; type: physicochemical
[22] = substrate: C[C@@H]1Cc2cc(C(N)=O)cnc2N1; conditions: Homo sapiens
Description: Uncompetitive inhibition of human NNMT assessed as Km of nicotinamide

[23] = substrate: C[C@@H]1Cc2cc(C(N)=O)cnc2N1; conditions: Homo sapiens; remark: listed apart in the source
Description: Uncompetitive inhibition of human NNMT assessed as Km of SAM

IC50 [1]: 6240 nM
Molecule: C[C@@H]1Cc2cc(C(N)=O)c[n+](C)c2N1

IC50 [1]: > 10000 nM
Molecule: CNc1ncc(C(N)=O)cn1

IC50 [1]: > 10000 nM
Molecule: NC(=O)c1cnc2[nH]ccc2c1Cl

IC50 [1]: > 10000 nM
Molecule: CNc1ccncc1C(N)=O

IC50 [1]: 1390 nM
Molecule: COc1ccc(C(N)=O)cn1

IC50 [1]: > 10000 nM
Molecule: CNc1ncc(C(N)=O)s1

Molecule: NC(=O)c1ccc(N)nc1 [6-AMINONICOTINAMIDE]
IC50 [1]: 3620 nM

IC50 [2]: 23 nM
remaining at 1 h [3]: 85%
remaining at 1 h [4]: 47%
half-life [5]: 32.6 min
half-life [6]: 22.2 min
Tmax [7]: 15 min
Cmax [8]: 13500 ng/mL
AUC(0-t) at 24 h [9]: 9220 ng·h/mL
clearance [10]: 182 mL/min/kg
F ([11]; po, 50 mg/kg, 24 h): 191%
IC50 [1]: 102 nM
Molecule: Cc1c(C(N)=O)cnc2c1CCN2

IC50 [1]: > 10000 nM
Molecule: CNc1ncc(C(N)=O)c(C)c1C

IC50 [1]: > 10000 nM
Molecule: CNc1ncc(C(N)=O)c(C)n1

IC50 [2]: 25 nM
remaining at 1 h [3]: 95%
remaining at 1 h [4]: 85%
half-life [5]: 107 min
half-life [6]: 66.6 min
Cmax [8]: 38900 ng/mL
AUC(0-t) at 24 h [9]: 30700 ng·h/mL
clearance [10]: 62.8 mL/min/kg
IC50 [1]: 282 nM
Molecule: CNc1cc(C)c(C(N)=O)cn1

IC50 [2]: 114 nM
Stability ([3]; microsomes, 1 h): Unstable
Stability [4]: Unstable
Molecule: C[C@H]1Nc2ncc(C(N)=O)cc2[C@@H]1C

IC50 [2]: 38 nM
remaining at 1 h [3]: 97%
remaining at 1 h [4]: 93%
half-life [5]: 173 min
half-life [6]: 78.5 min
Tmax [7]: 15 min
Cmax [8]: 22500 ng/mL
AUClast ([9]; 24 h): 5115 ng·h/mL
IC50 [12]: > 100000 nM
solubility [13]: ≥ 50 µg/mL
Vd [14]: 0.877 L/kg
fraction unbound [16]: > 0.62
fraction unbound [17]: > 0.76
efflux ratio [19]: 0.79
IC50 [1]: 42 nM
Molecule: C[C@@H]1Cc2cc(C(N)=O)cnc2N1
IC50 [15]: > 30000 nM
Activity [18]: Non-Toxic
Activity [20]: Non-Toxic

IC50 [1]: 7050 nM
Molecule: Cc1c(C(N)=O)c[n+]([O-])c2c1CCN2

IC50 [1]: 639 nM
Molecule: CNc1cc(Cl)c(C(N)=O)cn1

IC50 [1]: 740 nM
Molecule: NC(=O)c1cnc2c(c1)CCCN2

IC50 [1]: > 10000 nM
Molecule: CNc1cc(C(F)(F)F)c(C(N)=O)cn1

IC50 [1]: > 10000 nM
Molecule: CNc1cc(OC)c(C(N)=O)cn1

IC50 [2]: 12 nM
remaining at 1 h [3]: 91%
Stability [4]: Unstable
Tmax [7]: 20 min
Cmax [8]: 11200 ng/mL
AUC(0-t) at 24 h [9]: 12100 ng·h/mL
clearance [10]: 90 mL/min/kg
bioavailability [11]: 129%
IC50 [1]: 43 nM
Molecule: Cc1c(C(N)=O)cnc2c1C[C@@H](C)N2

IC50 [1]: > 10000 nM
Molecule: CCOc1cc(C)c(C(N)=O)cn1

IC50 [2]: 79 nM
remaining at 1 h [3]: 57%
remaining at 1 h [4]: 40%
half-life [5]: 172 min
half-life [6]: 27 min
Tmax [7]: 15 min
Cmax [8]: 5580 ng/mL
AUC(0-t) at 24 h [9]: 4330 ng·h/mL
clearance [10]: 179 mL/min/kg
bioavailability [11]: 90%
IC50 [1]: 92 nM
Molecule: NC(=O)c1cnc2c(c1Cl)CCN2

IC50 [1]: > 10000 nM
Molecule: CNc1cc(C)c(C(N)=S)cn1

IC50 [1]: > 10000 nM
Molecule: NC(=O)c1cnc2[nH]ncc2c1

IC50 [1]: 48 nM
Molecule: C[C@@H]1Cc2c(ncc(C(N)=O)c2Cl)N1

IC50 [1]: > 10000 nM
Molecule: C[C@H]1Cc2cc(C(N)=O)cnc2N1

IC50 [1]: > 10000 nM
Molecule: C[C@@H]1Nc2ncc(C(N)=O)cc2[C@H]1C

IC50 [2]: 142 nM
remaining at 1 h [3]: 100%
remaining at 1 h [4]: 89%
half-life [5]: 87.6 min
half-life [6]: 23.4 min
Tmax [7]: 15 min
Cmax [8]: 28700 ng/mL
AUC(0-t) at 24 h [9]: 29000 ng·h/mL
clearance [10]: 64.2 mL/min/kg
IC50 [1]: 175 nM
Molecule: NC(=O)c1cnc2c(c1)CCN2

pKa [21]: 3.28
Molecule: COc1ccccn1

IC50 [1]: > 10000 nM
Molecule: NC(=O)c1cnc2c(c1)OCCN2

B1: Nicotinamide N-methyltransferase (Homo sapiens), P40261 (protein)
chain: T1 sequence (P40261 whole entry)
Km [22]: 13.9 µM
Km [23]: 20.2 µM
